# Data: patent US9663478B2, “Benzotriazine oxides as drugs targeting Mycobacterium tuberculosis” (priority 2011, dated 2017)
# “Also recorded” adds a separate entry of the source.
# Assays:
# [1] = system: Escherichia coli ATCC 25922; test: Spectrum of antimicrobial activity; assay type: cell-based
# [2] = system: Mtb H37Rv; test: TB MIC - ITR (UIC), Institute for Tuberculosis Research; assay type: cell-based, Mycobacterium tuberculosis; conditions: Mycobacterium tuberculosis, H37RV, read-out: TB MIC - ITR
# [3] = system: Enterococcus fecalis ATCC 29212; test: Spectrum of antimicrobial activity; assay type: cell-based
# [4] = system: Enterobacter aerogenes SRI Collection; test: Spectrum of antimicrobial activity; assay type: cell-based
# [5] = system: Mtb H37Rv; test: TB MIC - SRI, resazurin-based microplate assay; assay type: cell-based, Mycobacterium tuberculosis; conditions: for MIC: Mycobacterium tuberculosis, H37RV
# [6] = system: Acinetobacter baumannii ATCC 17978; test: Spectrum of antimicrobial activity; assay type: cell-based
# [7] = system: Acinetobacter baumannii BAA 1605; test: Spectrum of antimicrobial activity; assay type: cell-based
# [8] = Plasma pharmacokinetics in female mice after oral administration; assay type: in vivo, mouse; conditions: female mice, oral, 100 mg/kg
# Protocol: In order to validate BTOs as a new lead series for the treatment of TB, we also evaluated their systemic exposure in the mouse after oral administration. A single dose (100 mg/kg) of 8a and 20q were administered to mice in order to profile the pharmacokinetics for the BTOs (Table 7). […] The elimination half-life was for each compound was shorter than our ideal target values, but the Tmax values indicate that they are rapidly absorbed after oral administration (FIGURE).
# All pharmacokinetic studies were performed in accordance with SRI International's animal care policies in an AAALAC and OLAW accredited facility. The procedure for the pharmacokinetics studies followed a previously described method.^55 Briefly, the plasma pharmacokinetics of selected BTO derivatives were determined in female CD1 mice after administration of a single dose (100 mg/kg) by oral gavage. Blood was collected from three mice per time point at 5, 15, 30, and 60 min and 2, 4, 6, 8, and 24 h after dose administration. Means and standard deviations were calculated for the plasma drug concentrations at each time point. Pharmacokinetic analysis was performed using non compartmental methods (WinNonlin® Professional, Version 5.2, Pharsight Corp, Mountain View, Calif.). The following parameters were calculated: time to maximum plasma concentration (Tmax), maximum plasma concentration (Cmax), maximum plasma concentration extrapoloated to time 0 (C0), area under the plasma concentration-time curve to the last time point (AUClast) and to infinity (AUCinf).
# [9] = as above; assay type: in vivo, mouse; conditions: female Balb/c mice, po 100 mg/kg
# [10] = system: Staphylococcus aureus HA-MRSA NRS 382; test: Spectrum of antimicrobial activity; assay type: cell-based
# [11] = system: Staphylococcus aureus ATCC 29213; test: Spectrum of antimicrobial activity; assay type: cell-based
# [12] = system: mouse lymphoma cell tk+/−→tk−/− gene mutation; test: Mouse lymphoma cell tk+/−→tk−/− gene mutation (MOLY) assay; assay type: cell-based
# Source text: A liability in developing any bioreductively-activated antimicrobial drug is the potential for mutagenicity. Because the basis for activity of these compounds is the generation of intermediate radical species, undesirable mutagenicity poses a risk, as has been documented for many classes of bioreductive drugs, including the BTO tirapazamine (TPZ).^19,20 The most convenient methodology for assessing the potential to induce genetic damage is to use the plate incorporation method with Salmonella typhimurium strains TA98 and TA100, commonly known as the Ames assay. The Salmonella tester strains have mutations in the histidine operon, a mutation that leads to defective lipopolysaccharide (rfa), and a deletion that covers genes involved in the synthesis of biotin (bio) and in the repair of ultraviolet-induced DNA damage (uvrB).^21,22 These mutations make the strains more permeable to many molecules and increase their susceptibility to the mutagenic effects of these molecules. Given that the hypothesized mechanism of the BTO compounds is to selectively form cytotoxic radical species in bacteria over mammalian cells, a microbial mutagenicity assay is not ideal, but was used to benchmark their activities in this assay. […] Individual plate counts and their means and standard deviations, along with the condition of the background lawn, are presented in SI Table 2.
# Experiments were conducted using a standard procedure for evaluating mutagenic potential.^23,24 The details on cell line, experimental procedures and data interpretaion have been previously published.^54 The following endpoints were evaluated in cells following exposure to 15fa and 20q: cell growth during expression periods, relative suspension growth, relative total growth, relative cloning efficiency, mutation frequency, and numbers of small (≦0.6 mm in diameter) colonies from trifluorothymidine-resistant (TFT^r) cells.
# [13] = system: Enterococcus faecium ATCC 19434; test: Spectrum of antimicrobial activity; assay type: cell-based
# [14] = system: Pseudomonas aeruginosa ATCC 27853; test: Spectrum of antimicrobial activity; assay type: cell-based
# [15] = system: Mycobacterium abscessus ATCC 19977; test: Spectrum of antimicrobial activity; assay type: cell-based
# [16] = system: Escherichia coli pKM101 SRI Collection; test: Spectrum of antimicrobial activity; assay type: cell-based
compound,measurement,setting,value
"[O-][n+]1nc(N2CCCC2)[n+]([O-])c2cc3c(cc21)CCC3 [Compound 20q, 3-(pyrrolidin-1-yl)-7,8-dihydro-6H-indeno[5,6-e][1,2,4]triazine 1,4-dioxide]","Antimicrobial activity, Escherichia coli",[1],>32 µg/mL
same,MIC,[2],0.46 µg/mL
same,"Antimicrobial activity, Enterococcus fecalis",[3],>32 µg/mL
same,"Antimicrobial activity, Enterobacter aerogenes",[4],>32 µg/mL
same,MIC,"[5]; read-out: MIC, H37Rv, Table 5",0.62 µg/mL
same,MIC,"[5]; read-out: TB MIC - SRI, Tables 1-4 and text",0.31 µg/mL
same,"Antimicrobial activity, Mtb H37Rv","[5]; source CSU, SI Table 1",0.31 µg/mL
same,"Antimicrobial activity, Acinetobacter baumannii",[6],>32 µg/mL
same,"Antimicrobial activity, Acinetobacter baumannii",[7],>32 µg/mL
same,AUCinf,[8],11248 ng·h/mL
same,AUClast,[8],11219 ng·h/mL
same,Cmax,[8],9767 ng/mL
same,Tmax,[8],0.25 h
same,t1/2,[8],1.9 h
same,plasma drug concentration at the 24 hr time point,[9],lower than the limit of quantitation
same,"Antimicrobial activity, Staphylococcus aureus HA-MRSA",[10],>32 µg/mL
same,"Antimicrobial activity, Staphylococcus aureus",[11],>32 µg/mL
same,Mutagenic potential in MOLY assay,"[12]; 10 μg/mL, +S9, 4-Hr Exposure",Negative
same,Mutagenic potential in MOLY assay,"[12]; 10 μg/mL, +S9, 24-Hr Exposure",Negative
same,Mutagenic potential in MOLY assay,"[12]; 10 μg/mL, −S9, 4-Hr Exposure",Negative
same,Mutagenic potential in MOLY assay,"[12]; 10 μg/mL, −S9, 24-Hr Exposure",Negative
same,Mutagenic potential in MOLY assay,"[12]; 25 μg/mL, +S9, 4-Hr Exposure",Negative^a
same,Mutagenic potential in MOLY assay,"[12]; 25 μg/mL, +S9, 24-Hr Exposure",Negative
same,Mutagenic potential in MOLY assay,"[12]; 25 μg/mL, −S9, 4-Hr Exposure",Negative
same,Mutagenic potential in MOLY assay,"[12]; 25 μg/mL, −S9, 24-Hr Exposure",Negative
same,Mutagenic potential in MOLY assay,"[12]; 50 μg/mL, +S9, 4-Hr Exposure",Negative
same,Mutagenic potential in MOLY assay,"[12]; 50 μg/mL, +S9, 24-Hr Exposure",Negative
same,Mutagenic potential in MOLY assay,"[12]; 50 μg/mL, −S9, 4-Hr Exposure",Negative
same,Mutagenic potential in MOLY assay,"[12]; 50 μg/mL, −S9, 24-Hr Exposure",Negative
same,Mutagenic potential in MOLY assay,"[12]; 100 μg/mL, +S9, 4-Hr Exposure",Negative
same,Mutagenic potential in MOLY assay,"[12]; 100 μg/mL, +S9, 24-Hr Exposure",Negative
same,Mutagenic potential in MOLY assay,"[12]; 100 μg/mL, −S9, 4-Hr Exposure",Negative
same,Mutagenic potential in MOLY assay,"[12]; 100 μg/mL, −S9, 24-Hr Exposure",Negative
same,mutation frequency in MOLY assay,"[12]; presence or absence of S9, non-cytotoxic dose levels, up to 100 μg/mL for 20q",no mutagenic activity; also recorded: negative response for mutation frequency
same,"Antimicrobial activity, Enterococcus faecium",[13],>32 µg/mL
same,"Antimicrobial activity, Pseudomonas aeruginosa",[14],>32 µg/mL
same,susceptibility of M. abscessus,[15],resistant
same,"Antimicrobial activity, Mycobacterium abscessus",[15]; ATCC 19977,>32 µg/mL
same,"Antimicrobial activity, Escherichia coli pKM101",[16],>32 μg/mL
